From US7157472B2, “Neuropeptide Y Y5 receptor antagonists” (Schering Corporation, priority 2002, dated 2007)

Target: T1, Human NPY Y5 receptors (Homo sapiens, UniProt Q15761)
T1 construct: expressed in transfected cells; host or cells: CHO cells (membrane protein)
T1 sequence (Q15761 1-445): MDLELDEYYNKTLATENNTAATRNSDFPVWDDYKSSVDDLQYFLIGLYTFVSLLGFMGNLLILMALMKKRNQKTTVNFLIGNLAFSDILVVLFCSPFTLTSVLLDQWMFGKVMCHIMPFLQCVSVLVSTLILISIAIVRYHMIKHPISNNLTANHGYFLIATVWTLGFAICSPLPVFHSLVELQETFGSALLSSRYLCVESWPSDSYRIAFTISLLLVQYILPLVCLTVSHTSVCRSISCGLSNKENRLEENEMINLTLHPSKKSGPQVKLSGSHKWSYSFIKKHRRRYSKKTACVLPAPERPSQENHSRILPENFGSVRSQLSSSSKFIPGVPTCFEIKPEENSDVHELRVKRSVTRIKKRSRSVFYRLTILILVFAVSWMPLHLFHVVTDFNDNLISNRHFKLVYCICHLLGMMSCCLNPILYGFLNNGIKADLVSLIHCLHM
Assay: NPY Receptor Binding Assay
Settings: binding affinity at the human neuropeptide Y Y5 receptor subtype (hY5), expressed in CHO cells, 125I-peptide YY
Protocol: NPY Receptor Binding Assay
Human NPY Y5 receptors were expressed in CHO cells. Binding assays were performed in 50 mM HEPES, pH 7.2, 2.5 mM CaCl2, 1 mM MgCl2 and 0.1% BSA containing 5–10 μg of membrane protein and 0.1 nM […] in a total volume of 200 μl. Non-specific binding was determined in the presence of 1 μM NPY. The reaction mixtures were incubated for 90 minutes at room temperature then filtered through Millipore MAFC glass fiber filter plates which had been pre-soaked in 0.5% polyethleneimine. The filters were washed with phosphate-buffered saline, and radioactivity was measured in a Packard TopCount scintillation counter.

SMILES | Ki
CC(=O)N1CCC(N(C)C(=O)Nc2cnn(-c3cc(F)cc(F)c3)c2)CC1 | 1.6 nM
CN(C(=O)Nc1cnn(-c2cc(F)cc(F)c2)c1)C1CCN(S(C)(=O)=O)CC1 | 2.4 nM
CN(C(=O)Nc1cnn(-c2cc(F)cc(F)c2)c1)C1CCNCC1 | 276 nM
CCS(=O)(=O)N1CCC(N(C)C(=O)Nc2cnn(-c3cc(F)cc(F)c3)c2)CC1 | 0.89 nM

Continued by falling Ki, values first:

Ki | SMILES
1.8 nM | CN(C(=O)Nc1cnn(-c2cc(F)cc(F)c2)c1)C1CCN(C(=O)OC(C)(C)C)CC1
1.7 nM | CC(C)S(=O)(=O)N1CCC(N(C)C(=O)Nc2cnn(-c3cc(F)cc(F)c3)c2)CC1
1.2 nM | CN(C(=O)Nc1cnn(-c2cc(F)cc(F)c2)c1)C1CCN(C(=O)C2CC2)CC1
0.96 nM | CCC(=O)N1CCC(N(C)C(=O)Nc2cnn(-c3cc(F)cc(F)c3)c2)CC1
0.7 nM | CC(C)C(=O)N1CCC(N(C)C(=O)Nc2cnn(-c3cc(F)cc(F)c3)c2)CC1
